Usually Ki stands for a measure of affinity in units of concentration, obtained from inhibition or displacement. As usually defined, the EC50 is the concentration that produces a half-maximal response.

Read-outs that look alike come from different tables or passages of the source. Bounds are passed on as bounds.

The record followed here is patent US8822494B2 (Pfizer Inc., priority 2012, dated 2014).

Experiment [1] deals with T1, Human D1 (Homo sapiens (Human), UniProt P21728). Put plainly: Human D1 Receptor Binding Assay ([3H]-SCH23390 competition). As to conditions: read-out: Human D1 Receptor Binding, Ki (μM); Geometric mean of 2-3 determinations; over-expressing LTK human cell lines, 0.5 nM [3H]-SCH23390, 30 min at 37° C.; footnote b = single determination, c = geometric mean of ≧4 determinations. How it is done:
D1 binding assays were performed using over-expressing LTK human cell lines. […] These ligand and tissue concentrations were used in time course studies to determine linearity and equilibrium conditions for binding. […] The pellet was resuspended in assay buffer [50 mM Tris (pH 7.4@ RT) containing 4 mM MgSO4 and 0.5 mM EDTA]. […] Non-specific binding was determined by radioligand binding in the presence of a saturating concentration of (+)-Butaclamol (10 μM), a D1 antagonist. After a 30 minute incubation period at 37° C., assay samples were rapidly filtered through Unifilter-96 GF/B PEI-coated filter plates and rinsed with 50 mM Tris buffer (pH 7.4 at 4° C.). […] Ki values were calculated according to the Cheng-Prusoff equation: […]

In experiment [2] the target is T1, Human D1. Nature of the experiment: D1 cAMP HTRF Assay. Type of experiment: cell-based. To be noted: HEK293T/hD1#1 stable cell line, 30 min at room temperature, footnote a = geometric mean of ≧7 determinations. From the text: This assay was used to determine the ability of a test compound to agonize (including partially agonize) D1. A Mab anti-cAMP labeled Cryptate visualizes the tracer. […] The signal, therefore, is inversely proportional to the concentration of cAMP in the sample.
The cAMP Dynamic kit was obtained from Cisbio International (Cisbio 62AM4PEJ). Multidrop Combi (Thermo Scientific) was used for assay additions. An EnVision (PerkinElmer) reader was used to read HTRF.
A HEK293T/hD1#1 stable cell line was constructed internally (Pfizer Ann Arbor).
Media was removed and cell pellet was re-suspended in PBS/[…] generating 2e5 cells/mL. […] Working solutions of cAMP-D2 and anti-cAMP-cryptate were prepared according to Cisbio instructions. […] The assay plate was incubated for 1 hour at room temperature. The assay plate was read on an EnVision plate reader using Cisbio recommended settings.
Data analysis was done using computer software. Percent effects were calculated from the compound controls. Ratio EC50 was determined using the raw ratio data from the EnVision reader. The cAMP standard curve was used in an analysis program to determine cAMP concentrations from raw ratio data. cAMP EC50 was determined using the calculated cAMP data.

The mark [3] stands for this setting: read-out: Human D1 cAMP HTRF, EC50 (μM), Geometric mean of 2-6 determinations.

T1 sequence (P21728 whole entry): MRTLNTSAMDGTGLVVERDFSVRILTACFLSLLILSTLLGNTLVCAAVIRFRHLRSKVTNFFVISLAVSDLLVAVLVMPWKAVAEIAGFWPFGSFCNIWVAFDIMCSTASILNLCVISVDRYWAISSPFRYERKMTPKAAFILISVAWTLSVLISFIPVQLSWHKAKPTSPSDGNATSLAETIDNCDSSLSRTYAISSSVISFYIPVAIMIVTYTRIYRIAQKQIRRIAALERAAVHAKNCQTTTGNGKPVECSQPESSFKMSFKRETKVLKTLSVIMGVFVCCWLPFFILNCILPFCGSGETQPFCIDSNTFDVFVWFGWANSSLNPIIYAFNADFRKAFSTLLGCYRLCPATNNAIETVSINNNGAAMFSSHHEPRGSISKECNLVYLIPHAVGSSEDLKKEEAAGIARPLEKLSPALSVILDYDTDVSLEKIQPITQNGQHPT

`Cc1cc(Oc2nccc3[nH]ncc23)ccc1-c1c(C)ncnc1C` [Example 6, 4-[4-(4,6-dimethylpyrimidin-5-yl)-3-methylphenoxy]-1H-pyrazolo[4,3-c]pyridine]: the Ki on Human D1 [1] is 0.113 µM. The EC50 at Human D1 [2] turned out to be 0.568 µM.
Take `Cc1cc(Oc2nccc3[nH]ccc23)ccc1-c1c(C)ncnc1C` [Example 5, 4-[4-(4,6-dimethylpyrimidin-5-yl)-3-methylphenoxy]-1H-pyrrolo[3,2-c]pyridine]: the Ki on Human D1 [1] worked out at 0.013 µM. At Human D1 [2], the EC50 worked out at 0.146 µM.
`Cc1cc(Oc2nccc3n[nH]cc23)ccc1-c1c(C)c(=O)[nH]c(=O)n1C` (single isomer, unassigned) [Example 8, (−)-1,5-dimethyl-6-[2-methyl-4-(1H-pyrazolo[4,3-c]pyridin-4-yloxy)phenyl]pyrimidine-2,4(1H,3H)-dione]: the inhibitory constant (Ki) at Human D1 [1] amounted to 0.00183 µM. This compound also came in with an EC50 at Human D1 [2] below 0.00222 µM.
As to `Cc1cc(Oc2nccc3[nH]ncc23)ccc1-n1c(C)nc2cnccc21` [Example 30, 4-[3-methyl-4-(2-methyl-1H-imidazo[4,5-c]pyridin-1-yl)phenoxy]-1H-pyrazolo[4,3-c]pyridine], on Human D1 [1], the Ki was determined as 0.268 µM. This compound returned an EC50 at Human D1 [2] of 2.76 µM.
In the case of `Cc1ncnc(C)c1-c1ccc(Oc2nccc3[nH]ncc23)cc1Cl` [Example 37, 4-[3-chloro-4-(4,6-dimethylpyrimidin-5-yl)phenoxy]-1H-pyrazolo[4,3-c]pyridine], the Ki on Human D1 [1] was 0.0523 µM. For the same compound, the EC50 on Human D1 [2] was 0.248 µM.
On to `COc1cc(Oc2nccc3[nH]ncc23)ccc1-c1c(C)ncnc1C` [Example 33, 4-[4-(4,6-dimethylpyrimidin-5-yl)-3-methoxyphenoxy]-1H-pyrazolo[4,3-c]pyridine], for which, on Human D1 [1], the Ki was 0.124 µM. The EC50 on Human D1 [2] was determined as 2.08 µM.
The matching figures for `Cc1cc(Oc2nccc3[nH]ccc23)ccc1-c1c(C)ncc(=O)n1C` (single isomer, unassigned) [Example 26, (−)-1,5-dimethyl-6-[2-methyl-4-(1H-pyrrolo[3,2-c]pyridin-4-yloxy)phenyl]pyrazin-2(1H)-one]: 0.00456 µM and 0.073 µM.
The matching figures for `Cc1ncc2nccn2c1-c1ccc(Oc2nccc3[nH]ccc23)cc1F` [Example 18, 5-[2-fluoro-4-(1H-pyrrolo[3,2-c]pyridin-4-yloxy)phenyl]-6-methylimidazo[1,2-a]pyrazine]: 0.0294 µM and 0.141 µM.
Take `Cc1ncnc(C)c1-c1cc(F)c(Oc2nccc3[nH]ccc23)cc1F` [Example 22, 4-[4-(4,6-dimethylpyrimidin-5-yl)-2,5-difluorophenoxy]-1H-pyrrolo[3,2-c]pyridine]: the Ki on Human D1 [1] worked out at 0.0548 µM. Also, at Human D1 [2], the midpoint of the response, the EC50, lay at 0.538 µM.
Regarding `Cc1ncc2nccn2c1-c1ccc(Oc2nccc3[nH]ccc23)cc1` [Example 19, 6-methyl-5-[4-(1H-pyrrolo[3,2-c]pyridin-4-yloxy)phenyl]imidazo[1,2-a]pyrazine], the inhibitory constant (Ki) at Human D1 [1] worked out at 0.0159 µM. The same compound displayed an EC50 at Human D1 [2] of 0.464 µM.
Regarding `Cc1cc(Oc2nccc3n[nH]cc23)ccc1-c1c(C)ncc(=O)n1C` (single isomer, unassigned) [Example 40, (+)-1,5-dimethyl-6-[2-methyl-4-(1H-pyrazolo[4,3-c]pyridin-4-yloxy)phenyl]pyrazin-2(1H)-one], at Human D1 [1], the Ki is 0.0281 µM. The compound also yielded an EC50 at Human D1 [2] of 0.674 µM.
Take `Cc1cc2[nH]ncc2c(Oc2ccc(-c3c(C)n[nH]c(=O)c3C)cc2)n1` [Example 46, 4,6-dimethyl-5-{4-[(6-methyl-1H-pyrazolo[4,3-c]pyridin-4-yl)oxy]phenyl}pyridazin-3(2H)-one]: on Human D1 [1], the Ki came out at 0.0247 µM. For the same compound, it took 0.0891 µM to reach a half-maximal effect at Human D1 [2] (EC50).
For `Cc1ncnc(C)c1-c1ccc(Oc2nccc3[nH]ncc23)cc1C#N` [Example 34, 2-(4,6-dimethylpyrimidin-5-yl)-5-(1H-pyrazolo[4,3-c]pyridin-4-yloxy)benzonitrile], in that order: 0.391 µM and 2.38 µM.
For the compound `Cc1cc(Oc2nccc3[nH]ccc23)ccc1-c1c(C)n[nH]c(=O)c1C` (single isomer, unassigned; ent-2) [Example 10, 4,6-dimethyl-5-[2-methyl-4-(1H-pyrrolo[3,2-c]pyridin-4-yloxy)phenyl]pyridazin-3(2H)-one, ENT-2], the inhibition constant (Ki) at Human D1 [1] came out at 0.00504 µM. The EC50 at Human D1 [2] (setting [3]) amounted to 0.00431 µM.
In the case of `Cc1ncnc(C)c1-c1ccc(Oc2nccc3[nH]ncc23)cc1F` [Example 32, 4-[4-(4,6-dimethylpyrimidin-5-yl)-3-fluorophenoxy]-1H-pyrazolo[4,3-c]pyridine], the Ki at Human D1 [1] was found to be 0.0723 µM. Further, the EC50 at Human D1 [2] was 0.903 µM.
`Cc1cc(Oc2nccc3[nH]ccc23)ccc1-c1c(C)ncnc1C#N` [Example 17, 6-methyl-5-[2-methyl-4-(1H-pyrrolo[3,2-c]pyridin-4-yloxy)phenyl]pyrimidine-4-carbonitrile]: the Ki on Human D1 [1] came out at 0.0392 µM. The compound further came in with an EC50 on Human D1 [2] of 0.374 µM.
The matching figures for `Cc1ncnc(N2CC(F)C2)c1-c1ccc(Oc2nccc3[nH]ccc23)cc1F` [Example 25, 4-{3-fluoro-4-[4-(3-fluoroazetidin-1-yl)-6-methylpyrimidin-5-yl]phenoxy}-1H-pyrrolo[3,2-c]pyridine]: 0.00509 µM and 0.156 µM.
For `Cc1ncnc(C#N)c1-c1ccc(Oc2nccc3[nH]ccc23)cc1F` [Example 16, 5-[2-fluoro-4-(1H-pyrrolo[3,2-c]pyridin-4-yloxy)phenyl]-6-methylpyrimidine-4-carbonitrile], the Ki on Human D1 [1] turned out to be 0.0283 µM. For the same compound, the response at Human D1 [2] was half-maximal at 0.396 µM (EC50).
As for `Cc1cc(Oc2nccc3n[nH]cc23)ccc1-c1c(C)n[nH]c(=O)c1C` (single isomer, unassigned) [Example 3, (+)-4,6-dimethyl-5-[2-methyl-4-(1H-pyrazolo[4,3-c]pyridin-4-yloxy)phenyl]pyridazin-3(2H)-one], on Human D1 [1], the Ki amounted to 0.00976 µM. On Human D1 [2], this compound came in with a concentration giving a half-maximal response (EC50) of 0.0151 µM.
For `Cc1ncnc(C)c1-c1ccc(Oc2nccc3[nH]ccc23)cc1Cl` [Example 24, 4-[3-chloro-4-(4,6-dimethylpyrimidin-5-yl)phenoxy]-1H-pyrrolo[3,2-c]pyridine], in that order: 0.00984 µM and 0.102 µM.
For the compound `Cc1cc(Oc2nccc3[nH]ccc23)ccc1-c1c(C)n[nH]c(=O)c1C` (single isomer, unassigned; ent-1) [Example 9, 4,6-dimethyl-5-[2-methyl-4-(1H-pyrrolo[3,2-c]pyridin-4-yloxy)phenyl]pyridazin-3(2H)-one, ENT-1], the Ki at Human D1 [1] was 0.00487 µM. Moreover, the EC50 on Human D1 [2] (setting [3]) turned out to be 0.00733 µM.
For `Cc1cc(Oc2nccc3[nH]ccc23)ccc1-c1c(C)cnnc1C` (single isomer, unassigned; ent-1) [Example 11, 4-[4-(3,5-dimethylpyridazin-4-yl)-3-methylphenoxy]-1H-pyrrolo[3,2-c]pyridine, ENT-1], in that order: 0.0141 µM and 0.117 µM.
For `Cc1ncnc(C)c1-c1ccc(Oc2nccc3[nH]ccc23)cc1C#N` [Example 21, 2-(4,6-dimethylpyrimidin-5-yl)-5-(1H-pyrrolo[3,2-c]pyridin-4-yloxy)benzonitrile], the inhibitory constant (Ki) at Human D1 [1] was determined as 0.102 µM. The EC50 at Human D1 [2] is 0.247 µM.
As to `Cc1ncnc(C#N)c1-c1ccc(Oc2nccc3[nH]ncc23)cc1F` [Example 35, 5-[2-fluoro-4-(1H-pyrazolo[4,3-c]pyridin-4-yloxy)phenyl]-6-methylpyrimidine-4-carbonitrile], the Ki on Human D1 [1] is 0.0696 µM. Also, on Human D1 [2], the EC50 came out at 1.34 µM.
The matching figures for `Cc1n[nH]c(=O)c(C)c1-c1ccc(Oc2nccc3[nH]ccc23)cc1` [Example 7, 4,6-dimethyl-5-[4-(1H-pyrrolo[3,2-c]pyridin-4-yloxy)phenyl]pyridazin-3(2H)-one]: 0.00412 µM and 0.0192 µM.
With `Cc1cc(Oc2nccc3[nH]ncc23)ccc1-c1cc(=O)[nH]nc1C` [Example 31, 6-methyl-5-[2-methyl-4-(1H-pyrazolo[4,3-c]pyridin-4-yloxy)phenyl]pyridazin-3(2H)-one], the Ki at Human D1 [1] was found to be 0.287 µM. At Human D1 [2], a half-maximal response (EC50) required 0.548 µM.
For `Cc1cc(Oc2nccc3n[nH]cc23)ccc1-c1c(C)n[nH]c(=O)c1C` (single isomer, unassigned) [Example 4, (−)-4,6-dimethyl-5-[2-methyl-4-(1H-pyrazolo[4,3-c]pyridin-4-yloxy)phenyl]pyridazin-3(2H)-one], in that order: 0.0104 µM and 0.0105 µM.
The matching figures for `Cc1cc(Oc2nccc3[nH]ccc23)ccc1-c1c(C)cnn1C` [Example 2, 4-[4-(1,4-dimethyl-1H-pyrazol-5-yl)-3-methylphenoxy]-1H-pyrrolo[3,2-c]pyridine]: 0.0348 µM and 0.355 µM.
